Test results: US8232409B2, “Heterocyclic benzimidazoles as TRPM8 modulators” (Janssen Pharmaceutica N.V., priority 2008, dated 2012)
Counter-ions that a name gives are not always drawn.

Biological target: T1, canine TRPM8 (Canis lupus familiaris, UniProt Q1A7N1)
T1 construct: expressed in transfected cells
Assay: In vitro canine TRPM8 functional assay (icilin-induced intracellular Ca2+, FLIPR/FDSS);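 further: intracellular Ca2+ tracked with a Ca2+-sensitive fluorescent dye, compound applied 5 min before icilin was added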
Assay type: cell-based
Settings: HEK293 cells stably expressing canine TRPM8; for inhibition at 0.2 µM: 0.200 μM compound, icilin challenge (~80% maximal response), read-out: % Inh. @ 0.200 μM; for IC50: icilin challenge, eight-point dose-response

T1 sequence (Q1A7N1 1-1104): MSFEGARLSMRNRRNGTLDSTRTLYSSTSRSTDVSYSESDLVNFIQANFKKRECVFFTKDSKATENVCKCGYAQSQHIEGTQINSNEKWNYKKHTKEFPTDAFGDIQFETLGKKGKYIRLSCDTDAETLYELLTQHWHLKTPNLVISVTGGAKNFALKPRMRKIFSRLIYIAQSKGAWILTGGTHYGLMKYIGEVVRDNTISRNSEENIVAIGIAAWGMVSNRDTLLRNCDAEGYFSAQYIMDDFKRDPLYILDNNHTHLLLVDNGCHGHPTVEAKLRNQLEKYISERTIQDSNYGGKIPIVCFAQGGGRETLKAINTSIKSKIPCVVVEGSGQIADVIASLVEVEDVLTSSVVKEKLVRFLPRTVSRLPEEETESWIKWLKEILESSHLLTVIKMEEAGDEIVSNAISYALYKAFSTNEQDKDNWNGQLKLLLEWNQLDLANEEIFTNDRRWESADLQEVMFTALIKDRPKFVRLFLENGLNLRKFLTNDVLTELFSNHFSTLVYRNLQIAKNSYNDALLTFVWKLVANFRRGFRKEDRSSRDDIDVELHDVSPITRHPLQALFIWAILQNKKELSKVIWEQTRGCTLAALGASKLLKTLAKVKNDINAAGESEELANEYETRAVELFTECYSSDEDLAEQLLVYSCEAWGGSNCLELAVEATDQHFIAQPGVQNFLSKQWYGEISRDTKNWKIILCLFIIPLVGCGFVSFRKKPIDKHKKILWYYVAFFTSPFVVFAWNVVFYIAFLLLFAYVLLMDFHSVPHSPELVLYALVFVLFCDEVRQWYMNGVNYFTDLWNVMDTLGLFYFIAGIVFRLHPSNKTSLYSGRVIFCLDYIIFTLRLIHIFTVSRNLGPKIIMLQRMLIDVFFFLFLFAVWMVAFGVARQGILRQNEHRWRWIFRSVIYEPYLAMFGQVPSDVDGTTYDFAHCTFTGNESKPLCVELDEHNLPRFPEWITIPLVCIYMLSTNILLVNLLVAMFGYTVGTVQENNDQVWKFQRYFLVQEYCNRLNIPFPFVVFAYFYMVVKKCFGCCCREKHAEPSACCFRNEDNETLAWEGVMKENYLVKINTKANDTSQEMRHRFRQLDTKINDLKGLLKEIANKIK

SMILES | inhibition at 0.2 µM | IC50
FC(F)(F)Oc1ccccc1-c1ccc2nc(C3=NC4(CCCCC4)CO3)[nH]c2c1 [Cpd 2, 2-[5-(2-Trifluoromethoxy-phenyl)-1H-benzimidazol-2-yl]-3-oxa-1-aza-spiro[4.5]dec-1-ene] | 106% | 7 nM
FC(F)(F)Oc1ccccc1-c1ccc2[nH]c(C3=NCC4(CCCCC4)O3)nc2c1 [Cpd 3, 2-[5-(2-Trifluoromethoxy-phenyl)-1H-benzimidazol-2-yl]-1-oxa-3-aza-spiro[4.5]dec-2-ene] | 60% | 
FC(F)(F)c1ccccc1-c1ccc2[nH]c(C3=NCC4(CCCCC4)O3)nc2c1 [Cpd 4, 2-[5-(2-Trifluoromethyl-phenyl)-1H-benzimidazol-2-yl]-1-oxa-3-aza-spiro[4.5]dec-2-ene] | 84% | 
FC(F)(F)c1ccccc1-c1ccc2[nH]c(C3=NOC4(CCOCC4)C3)nc2c1 [Cpd 9, 3-[5-(2-Trifluoromethylphenyl)-1H-benzimidazol-2-yl]-1,8-dioxa-2-aza-spiro[4.5]dec-2-ene] | 101% | 
FC(F)(F)Cc1ccccc1-c1ccc2[nH]c(C3=NOC4(CCCCC4)C3)nc2c1 [Cpd 11, 3-{5-[2-(2,2,2-Trifluoroethyl)-phenyl]-1H-benzimidazol-2-yl}-1-oxa-2-aza-spiro[4.5]dec-2-ene] | 102% | 1.5 nM
Fc1cc(-c2ccccc2C(F)(F)F)cc2nc(C3=NOC4(CCCCC4)C3)[nH]c12 [Cpd 14, 3-[7-Fluoro-5-(2-trifluoromethyl-phenyl)-1H-benzimidazol-2-yl]-1-oxa-2-aza-spiro[4.5]dec-2-ene hydrochloride] | 102% | 
CC1C(c2nc3cc(-c4ccccc4C(F)(F)F)ccc3[nH]2)=NOC12CCCCC2 (centres unmarked) [Cpd 15, 4-Methyl-3-[5-(2-trifluoromethyl-phenyl)-1H-benzimidazol-2-yl]-1-oxa-2-aza-spiro[4.5]dec-2-ene hydrochloride] | 102% | 3.9 nM
Cc1cc(-c2ccccc2OC(F)F)cc2nc(C3=NOC4(CCCCC4)C3)[nH]c12 [Cpd 20, 3-[5-(2-Difluoromethoxyphenyl)-7-methyl-1H-benzimidazol-2-yl]-1-oxa-2-aza-spiro[4.5]dec-2-ene hydrochloride] | 103% | 1.8 nM
OCCCc1cc(-c2ccccc2C(F)(F)F)cc2nc(C3=NOC4(CCCCC4)C3)[nH]c12 [Cpd 22, 3-[2-(1-Oxa-2-aza-spiro[4.5]dec-2-en-3-yl)-6-(2-trifluoromethylphenyl)-3H-benzimidazol-4-yl]-propan-1-ol hydrochloride] | 103% | 
Fc1ccccc1-c1ccc2[nH]c(C3=NOC4(CCCCC4)C3)nc2c1 [Cpd 23, 3-[5-(2-Fluoro-phenyl)-1H-benzimidazol-2-yl]-1-oxa-2-aza-spiro[4.5]dec-2-ene trifluoroacetic acid salt] | 103% | 
Cc1c(-c2ccccc2C(F)(F)F)ccc2[nH]c(C3=NOC4(CCCCC4)C3)nc12 [Cpd 24, 3-[4-Methyl-5-(2-trifluoromethyl-phenyl)-1H-benzimidazol-2-yl]-1-oxa-2-aza-spiro[4.5]dec-2-ene hydrochloride] | 103% | 5.6 nM
OC/C=C\c1cc(-c2ccccc2C(F)(F)F)cc2nc(C3=NOC4(CCCCC4)C3)[nH]c12 [Cpd 25, 3-[2-(1-Oxa-2-aza-spiro[4.5]dec-2-en-3-yl)-6-(2-trifluoromethylphenyl)-3H-benzimidazol-4-yl]-prop-2-en-1-ol] | 100% | 0.8 nM
Fc1cccc(F)c1-c1ccc2[nH]c(C3=NOC4(CCCCC4)C3)nc2c1 [Cpd 26, 3-[5-(2,6-Difluoro-phenyl)-1H-benzimidazol-2-yl]-1-oxa-2-aza-spiro[4.5]dec-2-ene trifluoroacetic acid salt] | 100% | 
FC(F)(F)c1ccccc1-c1ccc2[nH]c(C3=NC4(CCOCC4)CO3)nc2c1 [Cpd 29, 2-[5-(2-Trifluoromethyl-phenyl)-1H-benzimidazol-2-yl]-3,8-dioxa-1-aza-spiro[4.5]dec-1-ene] | 71% | 100 nM
Fc1ccccc1-c1ccc2[nH]c(C3=NOC4(CCOCC4)C3)nc2c1 [Cpd 31, 3-[5-(2-Fluoro-phenyl)-1H-benzimidazol-2-yl]-1,8-dioxa-2-aza-spiro[4.5]dec-2-ene hydrochloride] | 99% | 13.4 nM
Cc1cc(-c2ccccc2C(F)(F)F)cc2nc(C3=NOC4(CCOCC4)C3)[nH]c12 [Cpd 32, 3-[7-Methyl-5-(2-trifluoromethyl-phenyl)-1H-benzimidazol-2-yl]-1,8-dioxa-2-aza-spiro[4.5]dec-2-ene hydrochloride] | 100% | 4.9 nM
FC(F)(F)c1ccccc1-c1cc(Br)c2[nH]c(C3=NOC4(CCOCC4)C3)nc2c1 [Cpd 33, 3-[7-Bromo-5-(2-trifluoromethyl-phenyl)-1H-benzimidazol-2-yl]-1,8-dioxa-2-aza-spiro[4.5]dec-2-ene hydrochloride] | 100% | 1.7 nM
N#Cc1cc(-c2ccccc2C(F)(F)F)cc2nc(C3=NOC4(CCOCC4)C3)[nH]c12 [Cpd 35, 2-(1,8-Dioxa-2-aza-spiro[4.5]dec-2-en-3-yl)-6-(2-trifluoromethyl-phenyl)-3H-benzimidazole-4-carbonitrile hydrochloride] | 100% | 5.2 nM
CC1(C)CCC2(CC1)CC(c1nc3cc(-c4ccccc4C(F)(F)F)ccc3[nH]1)=NO2 [Cpd 36, 8,8-Dimethyl-3-[5-(2-trifluoromethyl-phenyl)-1H-benzimidazol-2-yl]-1-oxa-2-aza-spiro[4.5]dec-2-ene hydrochloride] | 99% | 12.5 nM
CC1(C)CCC2(CC1)CC(c1nc3cc(-c4ccccc4Cl)ccc3[nH]1)=NO2 [Cpd 37, 3-[5-(Chloro-phenyl)-1H-benzimidazol-2-yl]-8,8-dimethyl-1-oxa-2-aza-spiro[4.5]dec-2-ene hydrochloride] | 99% | 5.2 nM
Fc1cccc(F)c1-c1ccc2[nH]c(C3=NOC4(CCOCC4)C3)nc2c1 [Cpd 38, 3-[5-(2,6-Difluoro-phenyl)-1H-benzimidazol-2-yl]-1,8-dioxa-2-aza-spiro[4.5]dec-2-ene hydrochloride] | 99% | 8.3 nM
CC1(C)CCC2(CC1)CC(c1nc3cc(-c4ccccc4C(F)(F)F)cc(C(F)(F)F)c3[nH]1)=NO2 [Cpd 39, 8,8-Dimethyl-3-[7-trifluoromethyl-5-(2-trifluoromethyl-phenyl)-1H-benzimidazol-2-yl]-1-oxa-2-aza-spiro[4.5]dec-2-ene hydrochloride] | 99% | 6.3 nM
Clc1ccccc1-c1ccc2[nH]c(C3=NOC4(CCOCC4)C3)nc2c1 [Cpd 40, 3-[5-(2-Chloro-phenyl)-1H-benzimidazol-2-yl]-1,8-dioxa-2-aza-spiro[4.5]dec-2-ene hydrochloride] | 98% | 11 nM
CC1(C)CCC2(CC1)CC(c1nc3cc(-c4ccccc4C(F)(F)F)cc(Cl)c3[nH]1)=NO2 [Cpd 41, 3-[7-Chloro-5-(2-trifluoromethyl-phenyl)-1H-benzimidazol-2-yl]-8,8-dimethyl-1-oxa-2-aza-spiro[4.5]dec-2-ene hydrochloride] | 92% | 50.2 nM
